Data as given in ChEMBL document CHEMBL1201862, “PubChem BioAssay data set” (2004).
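Where inhibition never reached the appropriate level, the endpoint shown equals the highest concentration tested. Otherwise, values were interpolated linearly from a five-concentration, 48-hour dose response in 96-well plates. At the GI50, growth is halved.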 Calls of active or inactive are those of the source. Rule as the data show it: active = GI50 up to about 1.1 µM and inactive = higher.

Experiments:
Assay in all cases: NCI-60 cell line screen, 48 h
[1] = system: RXF 393
[2] = system: A549
[3] = system: SK-MEL-28
[4] = system: HCC 2998
[5] = system: KM-20L2
[6] = system: HL-60
[7] = system: SF-539
[8] = system: SNB-19
[9] = system: TK-10
[10] = system: M14
[11] = system: LXFL 529
[12] = system: EKVX
[13] = system: OVCAR-8
[14] = system: SK-MEL-2
[15] = system: NCI-H23
[16] = system: SF-268
[17] = system: SNB-75
[18] = system: MOLT-4
[19] = system: COLO 205
[20] = system: IGROV-1

CCn1cnnc1-c1nsc2ccccc12
GI50 [1]: 23.2 µM (inactive)
GI50 [2]: > 100 µM (inactive)
GI50 [3]: > 100 µM (inactive)
GI50 [4]: > 100 µM (inactive)
GI50 [5]: > 100 µM (inactive)
GI50 [6]: > 100 µM (inactive)
GI50 [7]: > 100 µM (inactive)
GI50 [8]: > 100 µM (inactive)
GI50 [9]: > 100 µM (inactive)
GI50 [10]: > 100 µM (inactive)
GI50 [11]: > 100 µM (inactive)
GI50 [12]: 26.9 µM (inactive)
GI50 [13]: > 100 µM (inactive)
GI50 [14]: > 100 µM (inactive)
GI50 [15]: > 100 µM (inactive)
GI50 [16]: > 100 µM (inactive)
GI50 [17]: 0.369 µM (active)
GI50 [18]: > 10 µM (inactive)
GI50 [19]: > 100 µM (inactive)
GI50 [20]: > 100 µM (inactive)
